3 molecules from US7754718B2 (priority 2004, dated 2010) can be followed below.

Molecules are shown by their SMILES.

As a reminder, the IC50 is the point on the concentration scale where inhibition reaches its midpoint. Higher therefore signals weaker potency. By EC50 is commonly meant the concentration at which the effect is half-maximal.

One test concerns HepG2 cells. In words: Cell cytotoxicity assay on HepG2 cells, methylene blue staining. Type of test: cell-based. Conditions: Homo sapiens, 72 h, concentration that inhibited 50% of cell growth, 3 days. How it is done: Cytotoxicities of test compounds on MT-2 (Mellors et al., 1992 Mol. Pharmacol. 41:446-451) and CEM (Grove et al., 1995, Cancer Res. 55:3008-3011) cells were determined according to the previously reported procedures. Hepg2 cells were seeded at a density of 10^4 cells/ml/well in 24-well plates and cultured in MEME supplemented with 10% FBS at 37° C. and 5% CO2. Each test compound at different concentrations was added on the second day of the culture and the cells were incubated for another 3 days. At the end of the incubation period, the medium was removed and 0.5 ml of 0.5% methylene blue in 50% ethanol (v/v) was added to each well and set at room temperature for 30-60 minutes. The methylene blue was removed; the plates were washed with water and allowed to air dry. Once dry, 1% sarcosyl was added to dissolve the stained cell layer. The absorbance at 595 nm was measured with a microplate reader (Molecular Devices Corp. Sunnyvale, Calif.). The cytotoxicity to CEM cell was calculated as described previously (Grove et al., 1995, Cancer Res. 55 (14): 3008-3011).

A further test has as its system HBV. In words: In vitro antiviral assay for HBV (Table 1). It is filed as cell-based, Hepatitis B virus. Conditions: Hepatitis B virus, read-out: Antiviral Activities (EC50, μM) HBV.
In the next test the test system is wt (adr) HBV. In words: Extracellular HBV DNA in W10 cells, real-time PCR. Type of test: cell-based. Conditions: Hepatitis B virus, 144 h, 6-day treatment, HBV DNA in medium by real-time PCR. An excerpt: Hep.G2.2.15 is a hepatoblastoma cell line stably transfected with a HBV genome (ayw strain) (Sells et al., 1987, Proc Natl Acad Sci USA. 84 (4):1005-1009). W10, a HepG2 cell line, was transfected with an adr HBV strain (Fu et al., 2000, Antimicrob Agents Chemother 44 (12): 3402-3407; Fu et al., 1999, Biochem Pharmacol. 57 (12): 1351-1359). These cell lines were used to assess the antiviral activity of helioxanthin and 22. Various concentrations of the drugs in minimal essential medium with Earle's salts (MEME) containing 10% fetal bovine serum (FBS) were tested in 6-day-old cultures. The drugs were left in the culture medium for 3 days, then the medium was removed and fresh medium containing the same concentration of the drugs was added. At the end of another 3-day period, the culture medium and cells were harvested to measure the HBV replication level. The Lamivudine resistant cell line DM2 (Fu et al., 2000, Antimicrob Agents Chemother 44 (12): 3402-3407) is also a hepatoblastoma cell line stably transfected with HBV genome (adr strain) which contains the L526M/M550V double mutation. The culture conditions of DM2 are the same as that of HepG.2.2.15.
Quantitative real-time PCR was used to determine the extracellular HBV copy number in the medium of DM2 cells with and without drug treatment. […] Quantification of the copy number was determined by comparing the sample amount to a standard curve generated in each run. […]
W10 and DM2 cells (Fu et al., 2000, Antimicrob Agents Chemother 44 (12): 3402-3407), were used to evaluate the effects of these two compounds on wt HBV (adr strain) and its lamivudine-resistant HBV. […] After a 6-day treatment, the amount of HBV DNA, which was secreted into the medium, was evaluated using real-time PCR (FIG. 3). […] The real-time PCR method was validated by comparing the results of intracellular HBV DNA levels obtained from the Southern blot hybridization analysis to the results from real-time PCR that measured HBV DNA copies in the HepG2.2.15 medium with or without treatment of lamivudine. […]

On to `O=C1OCc2c1cc1ccc3c(c1c2-c1ccc2c(c1)OCO2)OCO3` [Compound 2, 10-Benzo[1,3]dioxol-5-yl-9H-furo[3′,4′:6,7]naphtho[1,2-d][1,3]dioxol-7-one, reference compound], for which, in the test with HepG2 cells, half-maximal inhibition (IC50) required 6 µM. For the same molecule, the EC50 in the test with HBV is 1 µM; in the test on wt (adr) HBV it was 0.4 µM.
`Nc1ccn([C@@H]2CS[C@H](CO)O2)c(=O)n1` [Compound 3TC, (−)-(2R,5S)-1-[2-(hydroxymethyl)oxathiolan-5-yl]cytosine]: in the test on HepG2 cells, the concentration for half-maximal inhibition (IC50) is > 100 µM. The 50% effective concentration (EC50) with HBV worked out at 0.02 µM; with wt (adr) HBV, 0.02 ± 0.03 µM.
`COc1ccc(-c2c3c(cc4ccc5c(c24)OCO5)C(=O)NC3)cc1OC` [Compound 22, 10-(3,4-Dimethoxy-phenyl)-8,9-dihydro-1,3-dioxa-8-aza-dicyclopenta[a,g]naphthalen-7-one] displayed an IC50 in the test on HepG2 cells of 2 µM. For the same molecule, the figures for the concentration giving a half-maximal response (EC50) with HBV and in the test on wt (adr) HBV were 0.9 µM and 0.004 µM, respectively.
